These are literature values, as cited in US20040052761A1, “Localized delivery system for cancer drugs, phenstatin, using N-isopropylacrylamide” (priority 2002, published 2004).

Series [1] has as its system tubulin. The note with it: reference (1).
In series [2] the test system is tubulin. The note with it: reference (1). The source holds these as a separate data set.

In the case of `COc1ccc(C(=O)c2cc(OC)c(OC)c(OC)c2)cc1O` [Phenstatin], in the series on tubulin [1], the “inhibition of the binding of colchicines to tubulin” value is listed as “potent inhibitor”. Besides, the “inhibition of tubulin polymerization” value in the series on tubulin [2] is “potent inhibitor”.
